System: glucagon receptor
Test: Glucagon antagonist screening assay: adenylate cyclase reaction with rat liver membranes, cAMP measured by Scintillation Proximity Assay
Format: biochemical
Description: Young female Sprague-Dawley rats were used for the preparation of liver membranes using the method essentially described by Neville (ibid.) and modified by Pohl et al. (ibid). Ten to 15 rats yielding 60-100 grams of liver were processed per batch. After the rats were euthanized by cervical dislocation, their livers were surgically removed and transferred, as quickly as possible, to an iced beaker. Scissors were used to mince the tissue into pieces approximately 3-6 mm in size. Any connective tissue that was present was removed.
The minced tissue was suspended in ice cold 1 mM sodium bicarbonate at a concentration of approximately 300 g/I. This suspension was processed in batches in a tissue homogenizer with eight strokes of the loose pestle. […]
After centrifugation, as much of the supernatant as possible was carefully decanted and discarded, and the pellets were gently resuspended in the remaining supernatant with three strokes of the loose pestle in a clean tissue homogenizer. […] After thorough mixing, the sucrose concentration was measured with a refractometer and adjusted to between 43.9% and 44 1% sucrose (corresponding to a refractive index between 1.4076 and 1.4080) with either 69% sucrose or water. […]

antagonist activity: CAMP response of rat liver membranes to three concentrations of glucagon (culture broth of the yeast strain, compared with control strains making des-His^1-glucagon and des-His^1-[Glu^9]glucagon) | Compound | stimulation of adenylate cyclase activity by culture broth in the absence of exogenous glucagon (yeast culture broth, no exogenous glucagon)
weak antagonist | CSCC[C@H](NC(=O)[C@H](CC(C)C)NC(=O)[C@H](Cc1c[nH]c2ccccc12)NC(=O)[C@H](CCC(N)=O)NC(=O)[C@@H](NC(=O)[C@H](Cc1ccccc1)NC(=O)[C@H](CC(=O)O)NC(=O)[C@H](CCC(N)=O)NC(=O)[C@H](C)NC(=O)[C@H](CCCNC(=N)N)NC(=O)[C@H](CCCNC(=N)N)NC(=O)[C@H](CO)NC(=O)[C@H](CC(=O)O)NC(=O)[C@H](CC(C)C)NC(=O)[C@H](Cc1ccc(O)cc1)NC(=O)[C@H](CCCCN)NC(=O)[C@H](CO)NC(=O)[C@H](Cc1ccc(O)cc1)NC(=O)[C@H](CC(=O)O)NC(=O)[C@H](CO)NC(=O)[C@@H](NC(=O)[C@H](Cc1ccccc1)NC(=O)[C@@H](NC(=O)CNC(=O)[C@H](CCC(N)=O)NC(=O)[C@@H](N)CO)[C@@H](C)O)[C@@H](C)O)C(C)C)C(=O)N[C@@H](CC(N)=O)C(=O)N[C@H](C(=O)O)[C@@H](C)O [des-His^1-glucagon] | –
– | glucagon [ZB210] | stimulation of adenylate cyclase activity even in the absence of exogenous glucagon
